Broadly, the IC50 is the point on the concentration scale where inhibition reaches its midpoint. Low readings indicate greater potency, high ones weaker potency.

The target in this assay is Rv0183 (mtbMGL) (Mycobacterium tuberculosis, UniProt O07427). Kind of assay: biochemical.
Chain of Rv0183 (mtbMGL) (O07427 whole entry): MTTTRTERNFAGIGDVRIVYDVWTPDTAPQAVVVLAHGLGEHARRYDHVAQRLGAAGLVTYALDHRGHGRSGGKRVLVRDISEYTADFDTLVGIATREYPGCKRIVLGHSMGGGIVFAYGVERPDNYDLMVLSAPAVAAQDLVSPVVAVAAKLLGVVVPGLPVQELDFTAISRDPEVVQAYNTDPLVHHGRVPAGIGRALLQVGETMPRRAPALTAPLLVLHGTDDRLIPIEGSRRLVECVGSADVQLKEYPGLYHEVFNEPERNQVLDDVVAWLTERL
Take `COc1ccc(-n2nc(C(=O)N3CC[C@@H](O)C3)cc2-c2ccccc2Cl)cc1` [ELF1, (R)-(5-(2-chlorophenyl)-1-(4-methoxyphenyl)-1H-pyrazol-3-yl)(3-hydroxypyrrolidin-1-yl)methanone]: the IC50 was 9.55 µM. The compound `COc1ccc(Nc2cc(-n3cc(C(=O)N4CC[C@@H](O)C4)cn3)ncn2)cc1` [ELF5, (R)-(3-hydroxypyrrolidin-1-yl)(1-(6-((4-methoxyphenyl)amino)pyrimidin-4-yl)-1H-pyrazol-4-yl)methanone] displayed an IC50 of 8.51 µM. Consider `O=C(c1ccc(-c2cnc(-c3cccc(OC(F)(F)F)c3)o2)cc1)N1CC[C@@H](O)C1` [ELF8, (R)-(3-hydroxypyrrolidin-1-yl)(4-(2-(3-(trifluoromethoxy)phenyl)oxazol-5-yl)phenyl)methanone], for which the IC50 is 4.26 µM.
